Assay results taken from patent US20260265265A1, “NOVEL BENZIMIDAZOLONE DERIVATIVE COMPOUND AS AUTOTAXIN INHIBITOR” (LG CHEM, LTD., priority 2023, published 2026).

Molecular target: T1, Recombinant Human ENPP-2/Autotaxin (Homo sapiens, UniProt Q13822)
T1 construct: purchased R&D systems 5255-EN
Test: LysoPLD activity measurement (autotaxin enzyme inhibition, choline release, TOOS reagent)
Type: biochemical
Conditions: LysoPLD inhibitory activity; substrate 14:0 LysoPC; absorbance at 555 nm
Outline: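 Enzyme and compound were preincubated for 30 min before adding 14:0 LysoPC substrate, diluted to 300 μM, for 90 minutes at 37° C. The choline product was quantified colorimetrically with TOOS reagent. Wells without compound held 1% DMSO.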

| Compound | IC50 [nM] |
| --- | --- |
| O=C(O)c1cccc(Cn2c(=O)n(-c3ccc(NS(=O)(=O)CC(F)(F)F)cc3)c3cc(Cl)ccc32)c1 [Example 26, 3-((5-chloro-2-oxo-3-(4-((2,2,2-trifluoroethyl)sulfonamido)phenyl)-2,3-dihydro-1H-benzo[d]imidazol-1-yl)methyl)benzoic acid] | 100 to 1000 |
| O=C(O)c1cccc(Cn2c(=O)n(-c3ccc(C4=CCOC4)cc3)c3cc(Cl)ccc32)c1F [Example 110, 3-((5-chloro-3-(4-(2,5-dihydrofuran-3-yl)phenyl)-2-oxo-2,3-dihydro-1H-benzo[d]imidazol-1-yl)methyl)-2-fluorobenzoic acid] | 10 to 100 |
| O=C(O)c1ccc(F)c(Cn2c(=O)n(-c3ccc(N4CCOCC4)cc3)c3c(F)c(Cl)ccc32)c1 [Example 50, 3-((5-chloro-4-fluoro-3-(4-morpholinophenyl)-2-oxo-2,3-dihydro-1H-benzo[d]imidazol-1-yl)methyl)-4-fluorobenzoic acid] | 10 to 100 |
| O=C(O)c1cc(Cn2c(=O)n(-c3ccc(N4CCOCC4)cc3)c3c(F)c(Cl)ccc32)cc(F)c1F [Example 202, 5-((5-chloro-4-fluoro-3-(4-morpholinophenyl)-2-oxo-2,3-dihydro-1H-benzo[d]imidazol-1-yl)methyl)-2,3-difluorobenzoic acid] | 10 to 100 |
| CCCn1cc(-n2c(=O)n(Cc3cccc(C(=O)O)c3)c3ccc(Cl)cc32)cn1 [Example 84, 3-((5-chloro-2-oxo-3-(1-propyl-1H-pyrazol-4-yl)-2,3-dihydro-1H-benzo[d]imidazol-1-yl)methyl)benzoic acid] | 100 to 1000 |
| O=C(O)c1cccc(Cn2c(=O)n(-c3ccc(C4CCN(C(=O)C5CCC5)CC4)cc3)c3cc(Cl)ccc32)c1 [Example 101, 3-((5-chloro-3-(4-(1-(cyclobutanecarbonyl)piperidin-4-yl)phenyl)-2-oxo-2,3-dihydro-1H-benzo[d]imidazol-1-yl)methyl)benzoic acid] | 100 to 1000 |
| CCCc1ccc(-n2c(=O)n(Cc3cccc(C(=O)O)c3)c3ccc(Cl)cc32)cc1 [Example 2, 3-((5-chloro-2-oxo-3-(4-propylphenyl)-2,3-dihydro-1H-benzo[d]imidazol-1-yl)methyl)benzoic acid] | 100 to 1000 |
| CS(=O)(=O)Nc1ccc(-n2c(=O)n(Cc3cccc(C(=O)O)c3)c3ccc(Cl)cc32)cc1 [Example 19, 3-((5-chloro-3-(4-(methylsulfonamido)phenyl)-2-oxo-2,3-dihydro-1H-benzo[d]imidazol-1-yl)methyl)benzoic acid] | 10 to 100 |
| O=C(O)c1cccc(Cn2c(=O)n(-c3ccc(N4CCOCC4)cc3)c3cc(Cl)ccc32)c1 [Example 47, 3-((5-chloro-3-(4-morpholinophenyl)-2-oxo-2,3-dihydro-1H-benzo[d]imidazol-1-yl)methyl)benzoic acid] | 10 to 100 |
| O=C(O)c1cccc(C2(n3c(=O)n(-c4ccc(-c5nnc(C6CCCCC6)o5)cc4)c4cc(Cl)ccc43)CC2)c1 [Example 265, 3-(1-(5-chloro-3-(4-(5-cyclohexyl-1,3,4-oxadiazol-2-yl)phenyl)-2-oxo-2,3-dihydro-1H-benzo[d]imidazol-1-yl)cyclopropyl)benzoic acid] | 10 to 100 |
| CC1(C)OCc2cc(-n3c(=O)n(C4(c5cccc(C(=O)O)c5F)CC4)c4ccc(Cl)cc43)ccc21 [Example 253, 3-(1-(5-chloro-3-(1,1-dimethyl-1,3-dihydroisobenzofuran-5-yl)-2-oxo-2,3-dihydro-1H-benzo[d]imidazol-1-yl)cyclopropyl)-2-fluorobenzoic acid] | 10 to 100 |
| CN1CCN(c2ccc(-n3c(=O)n(Cc4cccc(C(=O)O)c4)c4ccc(Cl)cc43)cc2)CC1 [Example 97, 3-((5-chloro-3-(4-(4-methylpiperazin-1-yl)phenyl)-2-oxo-2,3-dihydro-1H-benzo[d]imidazol-1-yl)methyl)benzoic acid] | 100 to 1000 |
| CCCn1cc(-n2c(=O)n(Cc3cccc(C(=O)O)c3F)c3ccc(Cl)c(F)c32)cn1 [Example 92, 3-((5-chloro-4-fluoro-2-oxo-3-(1-propyl-1H-pyrazol-4-yl)-2,3-dihydro-1H-benzo[d]imidazol-1-yl)methyl)-2-fluorobenzoic acid] | 10 to 100 |
| CC(C)c1ccc(-n2c(=O)n(Cc3cccc(C(=O)O)c3)c3ccc(Cl)cc32)cc1 [Example 17, 3-((5-chloro-3-(4-isopropylphenyl)-2-oxo-2,3-dihydro-1H-benzo[d]imidazol-1-yl)methyl)benzoic acid] | 100 to 1000 |
| CCCOc1ccc(-n2c(=O)n(Cc3cccc(C(=O)O)c3)c3ccc(Cl)cc32)cn1 [Example 76, 3-((5-chloro-2-oxo-3-(6-propoxypyridin-3-yl)-2,3-dihydro-1H-benzo[d]imidazol-1-yl)methyl)benzoic acid] | 100 to 1000 |
| O=C(O)c1cccc(C2(n3c(=O)n(-c4ccc(CN5CCOCC5)cc4)c4cc(Cl)ccc43)CC2)c1 [Example 145, 3-(1-(5-chloro-3-(4-(morpholinomethyl)phenyl)-2-oxo-2,3-dihydro-1H-benzo[d]imidazol-1-yl)cyclopropyl)benzoic acid] | 10 to 100 |
| O=C(O)c1cccc(C2(n3c(=O)n(-c4ccc(CC(=O)N5CCOCC5)cc4)c4cc(Cl)ccc43)CC2)c1 [Example 172, 3-(1-(5-chloro-3-(4-(2-morpholino-2-oxoethyl)phenyl)-2-oxo-2,3-dihydro-1H-benzo[d]imidazol-1-yl)cyclopropyl)benzoic acid] | 10 to 100 |
| CC(C)(c1cccc(C(=O)O)c1)n1c(=O)n(-c2ccc(N3CC(O)C3)cc2)c2cc(Cl)ccc21 [Example 154, 3-(2-(5-chloro-3-(4-(3-hydroxyazetidin-1-yl)phenyl)-2-oxo-2,3-dihydro-1H-benzo[d]imidazol-1-yl)propane-2-yl)benzoic acid] | 10 to 100 |

More lines, now with the values ahead:

| IC50 [nM] | Compound |
| --- | --- |
| 10 to 100 | O=C(O)c1cc(Cn2c(=O)n(-c3ccc(N4CCOCC4)cc3)c3c(F)c(Cl)ccc32)ccc1F [Example 48, 5-((5-chloro-4-fluoro-3-(4-morpholinophenyl)-2-oxo-2,3-dihydro-1H-benzo[d]imidazol-1-yl)methyl)-2-fluorobenzoic acid] |
| < 10 | CC(C)(O)Cc1ccc(-n2c(=O)n(C3(c4cccc(C(=O)O)c4)CC3)c3ccc(Cl)cc32)cc1 [Example 216, 3-(1-(5-chloro-3-(4-(2-hydroxy-2-methylpropyl)phenyl)-2-oxo-2,3-dihydro-1H-benzo[d]imidazol-1-yl)cyclopropyl)benzoic acid] |
| < 10 | O=C(O)c1cccc(C2(n3c(=O)n(-c4ccc(C5=CCOC5)cc4)c4cc(Cl)ccc43)CC2)c1 [Example 124, 3-(1-(5-chloro-3-(4-(2,5-dihydrofuran-3-yl)phenyl)-2-oxo-2,3-dihydro-1H-benzo[d]imidazol-1-yl)cyclopropyl)benzoic acid] |
| < 10 | O=C(O)c1cccc(C2(n3c(=O)n(-c4ccc(C5(CO)CCC5)cc4)c4cc(Cl)ccc43)CC2)c1 [Example 239, 3-(1-(5-chloro-3-(4-(1-(hydroxymethyl)cyclobutyl)phenyl)-2-oxo-2,3-dihydro-1H-benzo[d]imidazol-1-yl)cyclopropyl)benzoic acid] |
| < 10 | O=C(O)c1cccc(C2(n3c(=O)n(-c4ccc(C5CCN(C6COC6)CC5)cc4)c4cc(Cl)ccc43)CC2)c1 [Example 260, 3-(1-(5-chloro-3-(4-(1-(oxetan-3-yl)piperidin-4-yl)phenyl)-2-oxo-2,3-dihydro-1H-benzo[d]imidazol-1-yl)cyclopropyl)benzoic acid] |
| < 10 | O=C(O)c1cc(F)cc(C2(n3c(=O)n(-c4ccc(N5CC6(CCOCC6)C5)cc4)c4cc(Cl)ccc43)CC2)c1 [Example 193, 3-(1-(3-(4-(7-oxa-2-azaspiro[3.5]nonan-2-yl)phenyl)-5-chloro-2-oxo-2,3-dihydro-1H-benzo[d]imidazol-1-yl)cyclopropyl)-5-fluorobenzoic acid] |
| < 10 | CC(C)(CF)c1ccc(-n2c(=O)n(C3(c4cccc(C(=O)O)c4)CC3)c3ccc(Cl)cc32)cc1 [Example 219, 3-(1-(5-chloro-3-(4-(1-fluoro-2-methylpropan-2-yl)phenyl)-2-oxo-2,3-dihydro-1H-benzo[d]imidazol-1-yl)cyclopropyl)benzoic acid] |
| < 10 | O=C(O)c1cccc(C2(n3c(=O)n(-c4ccc(CC(=O)N5CC(O)C5)cc4)c4cc(Cl)ccc43)CC2)c1 [Example 174, 3-(1-(5-chloro-3-(4-(2-(3-hydroxyazetidin-1-yl)-2-oxoethyl)phenyl)-2-oxo-2,3-dihydro-1H-benzo[d]imidazol-1-yl)cyclopropyl)benzoic acid] |
| < 10 | O=C(O)c1cccc(C2(n3c(=O)n(-c4ccc(N5CCCC5)cc4)c4cc(Cl)ccc43)CC2)c1 [Example 146, 3-(1-(5-chloro-2-oxo-3-(4-(pyrrolidin-1-yl)phenyl)-2,3-dihydro-1H-benzo[d]imidazol-1-yl)cyclopropyl)benzoic acid] |
| < 10 | O=C(O)c1cccc(C2(n3c(=O)n(-c4ccc(-c5nnc(C6CCOCC6)o5)cc4)c4cc(Cl)ccc43)CC2)c1F [Example 268, 3-(1-(5-chloro-2-oxo-3-(4-(5-(tetrahydro-2H-pyran-4-yl)-1,3,4-oxadiazol-2-yl)phenyl)-2,3-dihydro-1H-benzo[d]imidazol-1-yl)cyclopropyl)-2-fluorobenzoic acid] |
| < 10 | CN(C)C(=O)c1ccc(-n2c(=O)n(C3(c4cccc(C(=O)O)c4)CC3)c3ccc(Cl)cc32)cc1 [Example 71, 3-(1-(5-chloro-3-(4-(dimethylcarbamoyl)phenyl)-2-oxo-2,3-dihydro-1H-benzo[d]imidazol-1-yl)cyclopropyl)benzoic acid] |
| < 10 | O=C(O)c1cccc(C2(n3c(=O)n(-c4ccc(N5CCCOCC5)cc4)c4cc(Cl)ccc43)CC2)c1 [Example 183, 3-(1-(3-(4-(1,4-oxazepan-4-yl)phenyl)-5-chloro-2-oxo-2,3-dihydro-1H-benzo[d]imidazol-1-yl)cyclopropyl)benzoic acid] |
